According to PubChem BioAssay AID328 (DTP/NCI, 2004):
Toxic doses and inconclusive results are not listed. The calls were made as follows: active = survival T/C of 150% or more; inactive = T/C below 125% in these data.

Tested on: BDF1 mice, P388 leukemia ip, median survival T/C
Experiment: NCI In Vivo Anticancer Drug Screen. Data for tumor model P388 Leukemia (intraperitoneal) in B6D2F1 (BDF1) mice
Conditions: endpoint: median survival time, higher = longer survival
Summary of the method: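 Compound-treated tumour-bearing mice were compared with vehicle-treated controls. Survival was recorded, and the value is the treated-group measurement divided by the control-group measurement (T/C).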

[1] = dose: 100.0 mg/kg/injection, schedule: Q04DX003 (ip), vehicle: saline with Tween-80
[2] = dose: 200.0 mg/kg/injection, schedule: Q04DX003 (ip), vehicle: saline with Tween-80
[3] = dose: 400.0 mg/kg/injection, schedule: Q04DX003 (ip), vehicle: saline with Tween-80
[4] = dose: 50.0 mg/kg/injection, schedule: Q01DX009 (ip), vehicle: saline with Tween-80
[5] = dose: 100.0 mg/kg/injection, schedule: Q01DX009 (ip), vehicle: saline with Tween-80
[6] = dose: 200.0 mg/kg/injection, schedule: Q01DX009 (ip), vehicle: saline with Tween-80
[7] = dose: 100.0 mg/kg/injection, schedule: Q04DX003 (ip), vehicle: Klucel (hydroxypropylcellulose) (HPC)
[8] = dose: 200.0 mg/kg/injection, schedule: Q04DX003 (ip), vehicle: Klucel (hydroxypropylcellulose) (HPC)
[9] = dose: 400.0 mg/kg/injection, schedule: Q04DX003 (ip), vehicle: Klucel (hydroxypropylcellulose) (HPC)
[10] = dose: 100.0 mg/kg/injection, schedule: Q01DX009 (ip), vehicle: Klucel (hydroxypropylcellulose) (HPC)

Measured: T/C

CC(=O)Oc1cc(OCCCc2ccc(F)cc2)cc2c1-c1ccccc1CC2
inactive: [1] 99 % of control | [2] 89 % of control | [3] 97 % of control

O=C(Nc1ccc(Cl)c(Cl)c1)ON1CCCCC1
inactive: [4] 100 % of control | [5] 100 % of control | [6] 106 % of control

O=C1c2ccccc2C(O)(c2ccccc2)c2c(Cl)cccc21 (configuration not stated)
inactive: [4] 104 % of control | [5] 111 % of control | [6] 95 % of control

Cc1cccc(NC(=O)c2ccccc2C(=O)O)c1C
inactive: [7] 91 % of control | [8] 91 % of control | [9] 100 % of control

CCCCc1c(C(=O)OCC)oc(C(=O)OCC)c(CCCC)c1=O
inactive: dose: 12.5 mg/kg/injection, schedule: Q04DX003 (ip), vehicle: Klucel (hydroxypropylcellulose) (HPC) 99 % of control | dose: 25.0 mg/kg/injection, schedule: Q04DX003 (ip), vehicle: Klucel (hydroxypropylcellulose) (HPC) 91 % of control | dose: 50.0 mg/kg/injection, schedule: Q04DX003 (ip), vehicle: Klucel (hydroxypropylcellulose) (HPC) 115 % of control | [7] 91 % of control | [9] 102 % of control

CCCCC(C#N)(C(=O)OCC)C(C)(C)C (configuration not stated)
inactive: dose: 100.0 mg/kg/injection, schedule: Q01DX009 (ip), vehicle: saline 109 % of control | dose: 200.0 mg/kg/injection, schedule: Q01DX009 (ip), vehicle: saline 118 % of control | dose: 400.0 mg/kg/injection, schedule: Q01DX009 (ip), vehicle: saline 90 % of control

CCOC(=O)c1c(N)sc2c1CCN(Cc1ccccc1)C2
inactive: [5] 104 % of control | [1] 100 % of control | [6] 95 % of control | [2] 104 % of control | dose: 400.0 mg/kg/injection, schedule: Q01DX009 (ip), vehicle: saline with Tween-80 119 % of control | [3] 109 % of control

CC(C)(C)NCc1cc(C(C)(C)C)cc(-c2ccc(Cl)cc2)c1O
inactive: [4] 99 % of control | [5] 102 % of control

O=C(NC(=S)N1CC1)c1ccccc1
inactive: [4] 93 % of control | [5] 92 % of control | [6] 104 % of control

COC(OC)c1[nH]c(=S)[nH]c(=O)c1Cc1cccc(Cl)c1
inactive: dose: 100.0 mg/kg/injection, schedule: Q01DX001 (ip), vehicle: Klucel (hydroxypropylcellulose) (HPC) 109 % of control | [10] 122 % of control | [7] 113 % of control | dose: 200.0 mg/kg/injection, schedule: Q01DX001 (ip), vehicle: Klucel (hydroxypropylcellulose) (HPC) 104 % of control | [8] 100 % of control | dose: 400.0 mg/kg/injection, schedule: Q01DX001 (ip), vehicle: Klucel (hydroxypropylcellulose) (HPC) 104 % of control | dose: 400.0 mg/kg/injection, schedule: Q01DX009 (ip), vehicle: Klucel (hydroxypropylcellulose) (HPC) 100 % of control | [9] 95 % of control

CCCCc1[nH]nc2c1C(=O)C(Nc1ccccc1)=CC2=O
inactive: [1] 103 % of control | [2] 100 % of control | [3] 100 % of control

Cc1nc2[nH][nH]c(=O)c2nc1C
inactive: [10] 100 % of control | [7] 104 % of control | dose: 200.0 mg/kg/injection, schedule: Q01DX009 (ip), vehicle: Klucel (hydroxypropylcellulose) (HPC) 110 % of control | [8] 92 % of control | [9] 100 % of control
